These results are taken from patent US6300499A, “α1-adrenergic receptor antagonists” (Societe de Conseils de Recherches et d'Applications …, priority 1998, dated 2001).

pKi: −log10 of the molar value.

The target of this assay is α1-adrenergic receptor. As to the kind of experiment: Test of the bond to the α1-adrenergic receptor (inhibition of [3H]prazosin bond to rat cerebral cortex). It is filed as binding, rat (male Sprague Dawley). Particulars: [3H]prazosin 0.2 nM, rat cerebral cortex membranes, 30 min, 25° C., pH 7.7. The procedure: The cerebral cortices of male Sprague Dawley rats are homogenized at 4° C. in Tris-HCl 50 mM pH=7.7 and centrifuged at 50,000 g for 30 minutes at 4° C. The pellets are again suspended in the same buffer and centrifuged again at 50,000 g for 30 minutes at 4° C.
The filters are rinsed three times with the same buffer at 0-4° C. and their radioactivity is tested by liquid scintillation spectrometry.
The specific bonds are obtained by subtracting the non-specific bonds (determined in the presence of 10 μM of phentolamine (Sigma Chemical Co. St. Louis Mo.)) from the total bonds. The data relative to the bonds is analyzed by computer assisted iterative non-linear regression analysis, using the Ligand program (Munson, P. J., Rodbard, D. Anal. Biochem. 107:220 (1980)).
Consider `COc1ccccc1N1CCN(CCCNC(=O)C(c2ccccc2)C2CCCCC2)CC1` (racemic) [Compound 18, (±)-α-cyclohexyl-N-[3-{4-(2-methoxyphenyl)-1-piperazinyl}-propyl]-benzeneacetamide], for which the pKi (in general, the negative decadic logarithm of the Ki, by convention in mol/L) is 7.26.

As to `COc1ccccc1N1CCN(CCCNC(=O)C(O)c2ccccc2)CC1` (racemic) [Compound 19, (±)-α-hydroxy-N-[3-{4-(2-methoxyphenyl)-1-piperazinyl}-propyl]-benzeneacetamide], the pKi is 7.22.

In the case of `CCCCC(O)(C(=O)NCCCN1CCN(c2cc(C)ccc2C)CC1)c1ccccc1` (racemic) [Compound 28, (±)-N-[3-{4-(2,5-dimethylphenyl)-1-piperazinyl}-propyl]-2-hydroxy-2-phenyl-hexanamide], the pKi is 7.44.

In the case of `Cc1ccc(C)c(N2CCN(CCCNC(=O)C(C)(O)c3ccccc3Cl)CC2)c1` (racemic) [Compound 29, (±)-2-chloro-N-[3-{4-(2,5-dimethylphenyl)-1-piperazinyl}-propyl]-α-hydroxy-α-methyl-benzeneacetamide], the pKi is 7.17.

As for `Cc1ccc(C)c(N2CCN(CCCNC(=O)C(C)(O)c3ccc(Cl)cc3)CC2)c1` (racemic) [Compound 30, (±)-4-chloro-N-[3-{4-(2,5-dimethylphenyl)-1-piperazinyl}-propyl]-α-hydroxy-α-methyl-benzeneacetamide], the pKi is 7.36.

`Cc1ccc(C)c(N2CCN(CCCNC(=O)C(C)(O)c3cccc(Cl)c3)CC2)c1` (racemic) [Compound 31, (±)-3-chloro-N-[3-{4-(2,5-dimethylphenyl)-1-piperazinyl}-propyl]-α-hydroxy-α-methyl-benzeneacetamide]: the pKi was 7.37.

`Cc1ccc(C)c(N2CCN(CCCNC(=O)C(N)c3ccccc3)CC2)c1` (racemic) [Compound 32, (±)-a-amino-N-[3-{4-(2,5-dimethylphenyl)-1-piperazinyl}-propyl]-benzeneacetamide] gave a pKi of 7.29.

As to `Cc1ccc(C)c(N2CCN(CCCNC(=O)C(NS(C)(=O)=O)c3ccccc3)CC2)c1` (racemic) [Compound 33, (±)-N-[3-{4-(2,5-dimethylphenyl)-1-piperazinyl}-propyl]-α-(methylsulphonylamino)-benzeneacetamide], the pKi is 7.40.

Turning to `COc1ccc(CC(C)(O)C(=O)NCCCN2CCN(c3cc(C)ccc3C)CC2)cc1` (racemic) [Compound 34, (±)-N-[3-{4-(2,5-dimethylphenyl)-1-piperazinyl}-propyl]-2-hydroxy-2-methyl-4-methoxy-benzenepropionamide], the pKi is 7.35.

In turn, `CCC(O)c1ccccc1N1CCN(CCCNC(=O)C(c2ccccc2)c2ccccc2)CC1` (racemic) [Compound 36, (±)-N-[3-{4-(2-(1-hydroxypropyl)-phenyl)-1-piperazinyl}-propyl]-α-phenyl-benzeneacetamide] had a pKi of 6.77. This pKi is 0.58 log units lower than that of the compound before.

On to `COc1ccc(C(C)(O)C(=O)NCCCN2CCN(c3cc(C)ccc3C)CC2)cc1` (racemic) [Compound 40, (±)-N-[3-{4-(2,5-dimethylphenyl)-1-piperazinyl}-propyl]-α-hydroxy-α-methyl-4-methoxy-benzeneacetamide], for which the pKi is 7.42.

As to `Cc1ccc(C(C)(O)C(=O)NCCCN2CCN(c3cc(C)ccc3C)CC2)cc1` (racemic) [Compound 41, (±)-N-[3-{4-(2,5-dimethylphenyl)-1-piperazinyl}-propyl]-α-hydroxy-α-methyl-4-methyl-benzeneacetamide], the pKi was 7.57.

With `Cc1ccc(C)c(N2CCN(CCCNC(=O)C(C)(O)c3ccc4ccccc4c3)CC2)c1` (racemic) [Compound 43, (±)-N-[3-{4-(2,5-dimethylphenyl)-1-piperazinyl}-propyl]-α-hydroxy-α-methyl-2-naphthaleneacetamide], the pKi was 7.54.

Compound `Cc1ccc(C)c(N2CCN(CCCNC(=O)C(C)(O)c3cccc(-c4ccccc4)c3)CC2)c1` (racemic) [Compound 44, (±)-N-[3-{4-(2,5-dimethylphenyl)-1-piperazinyl}-propyl]-α-hydroxy-α-methyl-1,1'-biphenyl-3-acetamide] had a pKi of 7.14. Against the preceding compound, the pKi is 0.40 log units lower.

With `Cc1ccc(C)c(N2CCN(CCCNC(=O)C(NC(=O)Cc3ccccc3)c3ccccc3)CC2)c1` (racemic) [Compound 49, (±)-N-[3-{4-(2,5-dimethylphenyl)-1-piperazinyl}-propyl]-α-benzylcarbonylamino-benzeneacetamide], the pKi was 7.30.

Consider `COC(C)(C(=O)NCCCN1CCN(c2cc(C)ccc2C)CC1)c1ccccc1` (racemic) [Compound 51, (±)-N-[3-{4-(2,5-dimethylphenyl)-1-piperazinyl}-propyl]-α-methoxy-α-methyl-benzeneacetamide], for which the pKi was 6.96.

On to `Cc1ccc(C)c(N2CCN(CCCNC(=O)C(C)(OCc3ccccc3)c3ccccc3)CC2)c1` (racemic) [Compound 52, (±)-N-[3-{4-(2,5-dimethylphenyl)-1-piperazinyl}-propyl]-α-benzyloxy-α-methyl-benzeneacetamide], for which the pKi is 7.29.

`Cc1ccc(C)c(N2CCN(CCCNC(=O)C(C)(C)O)CC2)c1` (racemic) [Compound 54, (±)-N-[3-{4-(2,5-dimethylphenyl)-1-piperazinyl}-propyl]-2-hydroxy-2-methyl-propionamide]: the pKi was 6.55.

For `O=C(NCCCN1CCN(c2ccccc2C(O)C2CC2)CC1)C(c1ccccc1)c1ccccc1` (racemic) [Compound 55, (±)-N-[3-{4-(2-(cyclopropylhydroxymethyl)-phenyl)-1-piperazinyl}-propyl]-α-phenyl-benzeneacetamide], the pKi was 6.52.

On to `CCCc1ccccc1N1CCN(CCCNC(=O)C(O)(c2ccccc2)c2ccccc2)CC1` (racemic) [Compound 56, (±)-N-[3-{4-(2-(propyl)-phenyl)-1-piperazinyl}-propyl]-α-hydroxy-α-phenyl-benzeneacetamide], for which the pKi is 7.60.

In the case of `Cc1cccc(N2CCN(CCCNC(=O)C(O)(c3ccccc3)c3ccccc3)CC2)c1` [Compound 1, α-hydroxy-N-[3-{4-(3-methylphenyl)-1-piperazinyl}-propyl]-α-phenylbenzeneacetamide], the pKi was 7.29.

Take `Cc1ccc(N2CCN(CCCNC(=O)C(O)(c3ccccc3)c3ccccc3)CC2)cc1` [Compound 3, α-hydroxy-N-[3-{4-(4-methylphenyl)-1-piperazinyl}-propyl]-α-phenyl-benzeneacetamide]: the pKi was 7.22.

For `Cc1cccc(N2CCN(CCCNC(=O)C(O)(c3ccccc3)c3ccccc3)CC2)c1C` [Compound 4, N-[3-{4-(2,3-dimethylphenyl)-1-piperazinyl}-propyl]-α-hydroxy-α-phenyl-benzeneacetamide], the pKi was 7.18.

`Cc1ccc(N2CCN(CCCNC(=O)C(O)(c3ccccc3)c3ccccc3)CC2)c(C)c1` [Compound 5, N-[3-{4-(2,4-dimethylphenyl)-1-piperazinyl}-propyl]-α-hydroxy-α-phenyl-benzeneacetamide] gave a pKi of 7.22.

As for `Cc1cccc(C)c1N1CCN(CCCNC(=O)C(O)(c2ccccc2)c2ccccc2)CC1` [Compound 6, N-[3-{4-(2,6-dimethylphenyl)-1-piperazinyl}-propyl]-a-hydroxy-a-phenyl-benzeneacetamide], the pKi was 6.32.

On to `Cc1ccc(C)c(N2CCN(CCCNC(=O)C(c3ccc(Cl)cc3)c3ccc(Cl)cc3)CC2)c1` [Compound 21, 4-chloro-a-(4-chlorophenyl)-N-[3-{4-(2,5-dimethylphenyl)-1-piperazinyl}-propyl]-benzeneacetamide], for which the pKi is 7.19. This pKi is 0.87 log units higher than that of the compound before.

On to `Cc1ccc(C)c(N2CCN(CCCNC(=O)C(C)(c3ccccc3)c3ccccc3)CC2)c1` [Compound 23, N-[3-{4-(2,5-dimethylphenyl)-1-piperazinyl}-propyl]-α-methyl-α-phenyl-benzeneacetamide], for which the pKi is 7.01.

As to `CCSC(C(=O)NCCCN1CCN(c2cc(C)ccc2C)CC1)(c1ccccc1)c1ccccc1` [Compound 24, N-[3-{4-(2,5dimethylphenyl)-1-piperazinyl}-propyl]-α-ethylthio-α-phenyl-benzeneacetamide], the pKi is 7.16.

In the case of `CCC(CC)(C(=O)NCCCN1CCN(c2cc(C)ccc2C)CC1)c1ccccc1` [Compound 26, N-[3-{4-(2,5dimethylphenyl)-1-piperazinyl}-propyl]-2-ethyl-2-phenyl-butyramide], the pKi was 7.13.

For `Cc1ccc(C)c(N2CCN(CCCN(C)C(=O)C(c3ccccc3)c3ccccc3)CC2)c1` [Compound 35, N-[3-{4-(2,5-dimethylphenyl)-1piperazinyl}-propyl]-N-methyl-α-phenyl-benzeneacetamide], the pKi was 7.05. This pKi and that of the compound before are within 0.2 log units of each other.
